From patent US20030211075A1 (priority 2001, published 2003)

Tests used:
Format in all cases: in vivo, mouse
[1] = test system: thrombin-antithrombin-complexes (TAT), antithrombin III (ATIII); assay: Coagulation parameters in plasma three days after treatment; conditions: tTF alone; plasma three days after i.v. treatment
[2] = test system: TNFα; assay: TNFα serum levels in treated animals; conditions: tTF containing no endotoxin (n=6), 1, 2 and 24 hours
Experimental: Mice were closely observed after treatment for clinical signs of toxicity and clinical status was documented at defined time points (5 minutes, 10 minutes, 15 minutes, 30 minutes. 1 hour. 2 hours, 24 hours, 48 hours, 72 hours). Blood samples were taken from the tail vein at 1 hour, 2 hours and 24 hours to measure TNFα blood levels. Three days after treatment, the mice were anesthetized, blood samples were taken from the vena cava for coagulation tests, and an autopsy was performed to document any changes in gross pathology. Tumors, lymph node metastases and the major normal organs (heart, lung, brain, liver, kidney, colon, spleen, pancreas) were harvested and prepared for histological analysis.
TNFα levels in serum were determined using the Quantikine-M kit (R&D Systems, Minneapolis, Minn.) according to the manufacturer's instructions.

[3] = test system: H460 human non-small cell lung carcinoma; assay: Anti-tumor effects, H460; conditions: second treatment at 900 mm^3
Experimental: The tumor test systems were: i) L540 human Hodgkin's disease tumors growing in SCID mice; ii) C1300 Muγ (interferon-secreting) neuroblastoma growing in nu/nu mice; iii) H460 human non-small cell lung carcinoma growing in nu/nu mice. To establish solid tumors, 1.5×10^7 tumor cells were injected subcutaneously into the right anterior flank of SCID or BALB/c nu/nu mice (Charles River Labs., Wilmingham, Mass.). When the tumors had grown to various diameters, mice were assigned to different experimental groups, each containing 4 to 9 mice.
Other mice received equivalent quantities of bispecific antibody alone. The injections were performed over ˜45 seconds into one of the tail veins, followed by 200 μl of saline. The infusions were repeated six days later. Perpendicular tumor diameters were measured at regular intervals and tumor volumes were calculated.

For “tTF: extracellular domain of the mature Tissue Factor protein (amino acid 1-219), recombinant truncated human Tissue Factor”, which “TAT” value [1] is on record?
Its value is 25.4 ng/mL.

What about the TNFα serum level [2] of the same substance?
The TNFα serum level was “could not be detected”.

What about the “tumor volume after second treatment” value [3] of the same substance?
The value was 550 mm^3.
